From ChEMBL document CHEMBL3046665, “In vitro cytotoxicity, antimicrobial, and metal-chelating activity of triterpene saponins from tea seed grown in Kangra valley, India” (Med Chem Res, 2013)
Counter-ions that a name gives are not always drawn.

Legend:
Type in all cases: functional
PC-3 = assay: Cytotoxicity against Homo sapiens (human) PC3 cells assessed as growth inhibition at 1 uM after 48 hr by SRB assay; conditions: PC-3, 48 h, read-out: GI
COLO 205 = assay: Cytotoxicity against Homo sapiens (human) COLO205 cells assessed as growth inhibition at 1uM after 48 hr by SRB assay; conditions: COLO 205, 48 h, read-out: GI
MCF7 = assay: Cytotoxicity against Homo sapiens (human) MCF7 cells assessed as growth inhibition at 1 uM after 48 hr by SRB assay; conditions: MCF7, 48 h, read-out: GI
OVCAR-5 = assay: Cytotoxicity against Homo sapiens (human) OVCAR5 cells assessed as growth inhibition at 1 uM after 48 hr by SRB assay; conditions: OVCAR-5, 48 h, read-out: GI

## COc1cccc2c1C(=O)c1c(O)c3c(c(O)c1C2=O)C[C@@](O)(C(=O)CO)C[C@@H]3O[C@H]1C[C@H](N)[C@H](O)[C@H](C)O1 [DOXORUBICIN HYDROCHLORIDE]
PC-3
  inhibition of growth at 1 µM: 66%
COLO 205
  inhibition of growth at 1 µM: 69%
MCF7
  inhibition of growth at 1 µM: 72%
OVCAR-5
  inhibition of growth at 1 µM: 60%

## CC(=O)O[C@H]1C(=O)[C@@]2(C)[C@H]([C@H](OC(=O)c3ccccc3)[C@]3(O)C[C@H](OC(=O)[C@H](O)[C@@H](NC(=O)c4ccccc4)c4ccccc4)C(C)=C1C3(C)C)[C@]1(OC(C)=O)CO[C@@H]1C[C@@H]2O [PACLITAXEL]
PC-3
  inhibition of growth at 1 µM: 71%
COLO 205
  inhibition of growth at 1 µM: 57%
MCF7
  inhibition of growth at 1 µM: 80%
OVCAR-5
  inhibition of growth at 1 µM: 73%
